Where a name gives a salt, the structure may show the parent alone.

One may read the IC50 as the concentration at which inhibition is half-maximal.

IRAK-4, sequence (Q9NWZ3 whole entry, species assumed): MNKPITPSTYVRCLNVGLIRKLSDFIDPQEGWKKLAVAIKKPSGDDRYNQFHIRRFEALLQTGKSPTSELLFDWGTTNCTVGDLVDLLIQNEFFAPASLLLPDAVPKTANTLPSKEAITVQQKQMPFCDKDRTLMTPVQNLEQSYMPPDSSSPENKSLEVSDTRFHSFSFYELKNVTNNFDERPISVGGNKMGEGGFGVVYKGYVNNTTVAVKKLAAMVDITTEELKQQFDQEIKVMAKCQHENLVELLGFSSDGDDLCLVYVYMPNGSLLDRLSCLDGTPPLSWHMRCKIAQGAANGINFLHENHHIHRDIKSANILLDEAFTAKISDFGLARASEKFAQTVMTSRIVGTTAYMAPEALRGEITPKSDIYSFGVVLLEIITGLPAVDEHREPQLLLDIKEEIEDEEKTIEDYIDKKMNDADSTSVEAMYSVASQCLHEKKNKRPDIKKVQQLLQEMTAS
IRAK-1, sequence (P51617 whole entry, species assumed): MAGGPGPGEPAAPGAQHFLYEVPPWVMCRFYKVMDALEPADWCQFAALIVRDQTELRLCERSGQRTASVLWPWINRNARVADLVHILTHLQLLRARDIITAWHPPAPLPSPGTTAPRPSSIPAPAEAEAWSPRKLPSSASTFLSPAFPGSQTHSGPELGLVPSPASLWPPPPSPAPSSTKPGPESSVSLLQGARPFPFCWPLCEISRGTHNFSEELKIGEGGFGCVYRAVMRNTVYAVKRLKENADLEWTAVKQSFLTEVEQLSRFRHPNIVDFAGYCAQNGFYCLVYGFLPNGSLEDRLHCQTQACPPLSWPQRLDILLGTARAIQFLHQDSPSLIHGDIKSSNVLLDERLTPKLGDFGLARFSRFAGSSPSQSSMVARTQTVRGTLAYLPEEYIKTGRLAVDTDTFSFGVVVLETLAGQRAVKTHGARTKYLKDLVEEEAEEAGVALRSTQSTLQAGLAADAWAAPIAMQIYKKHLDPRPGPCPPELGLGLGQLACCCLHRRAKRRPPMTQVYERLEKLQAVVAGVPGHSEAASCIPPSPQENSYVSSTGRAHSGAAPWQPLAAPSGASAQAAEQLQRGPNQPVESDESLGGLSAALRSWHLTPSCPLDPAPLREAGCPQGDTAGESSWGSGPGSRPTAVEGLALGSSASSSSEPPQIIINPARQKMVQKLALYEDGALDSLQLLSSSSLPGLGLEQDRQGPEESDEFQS

The first test has as its target IRAK-4 (Homo sapiens (Human), UniProt Q9NWZ3). Put plainly: In vitro IRAK-4 kinase assay. Type of test: biochemical. Particulars: purified recombinant IRAK-4, 50 uM ATP, 33P peptide phosphorylation. The method in brief:
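Recombinant IRAK-4 or IRAK-1 incubated with 250 uM synthetic peptide in MOPS pH7.2 kinase buffer with 50 uM ATP, 20 mM MgCl2 and γ-33P ATP for the indicated time. Phosphorylated peptide captured on phosphocellulose, washed with phosphoric acid, quantified by scintillation counting.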
`O=C(Nc1cc(Cl)ccc1O[C@H]1CC[C@@H](O)CC1)c1csc2cncnc12` [Example 62, Thieno[3,2-d]pyrimidine-7-carboxylic acid [5-chloro-2-(4-hydroxy-cyclohexyloxy)-phenyl]-amide]: the IC50 was 149 nM.

As for `CC(C)(CCO)Oc1cc2ncccc2cc1NC(=O)c1csc2cncnc12` [Example 35, Thieno[3,2-d]pyrimidine-7-carboxylic acid [7-(3-hydroxy-1,1-dimethyl-propoxy)-quinolin-6-yl]-amide hydrochloride], the concentration for half-maximal inhibition (IC50) is 49 nM.

Take `O=C(Nc1cc(Cl)ccc1N1CCC(CO)CC1)c1csc2cncnc12` [Example 49, Thieno[3,2-d]pyrimidine-7-carboxylic acid [5-chloro-2-(4-hydroxymethyl-piperidin-1-yl)-phenyl]-amide]: the IC50 was 100 nM.

For `O=C(Nc1cc2cccnc2cc1O[C@H]1CC[C@H](O)CC1)c1csc2cncnc12`, the IC50 is 11 nM.

Take `COc1cc2ncccc2cc1NC(=O)c1csc2cnc(N(C)CCO)nc12` [Example 24]: the IC50 was found to be 29 nM.

As to `NCC1CCN(c2cc3ncccc3cc2NC(=O)c2csc3cncnc23)CC1` [Example 14, hydrochloride], the IC50 turned out to be 12 nM.

In the case of `O=C(Nc1cc2cccnc2cc1O[C@@H]1CC[C@@H](O)C1)c1csc2cncnc12` (stereo in doubt) [hydrochloride], the half-maximal inhibitory concentration (IC50) was found to be 15 nM.

For the compound `COc1ccc(Cl)cc1NC(=O)c1csc2ccc(NCCO)nc12` [Example 162, 5-(2-Hydroxy-ethylamino)-thieno[3,2-beta]pyridine-3-carboxylic acid (5-chloro-2-methoxy-phenyl)-amide], the IC50 amounted to 4660 nM.

Consider `COc1cc2cc[nH]c2cc1NC(=O)c1csc2cncnc12` [Example 102, Thieno[3,2-d]pyrimidine-7-carboxylic acid (5-methoxy-1H-indol-6-yl)-amide], for which the IC50 came to 596 nM.

With `Cc1ncoc1COc1ccc(Cl)cc1NC(=O)c1cnn2cccnc12` [Example 121, Pyrazolo[1,5-alpha]pyrimidine-3-carboxylic acid [5-chloro-2-(4-methyl-oxazol-5-ylmethoxy)-phenyl]-amide], the IC50 worked out at 1550 nM.

For the compound `COc1cc(C(=O)NCCCO)ccc1NC(=O)c1csc2cncnc12` [Example 113, Thieno[3,2-d]pyrimidine-7-carboxylic acid [4-(3-hydroxy-propylcarbamoyl)-2-methoxy-phenyl]-amide], the IC50 stood at 833 nM.

As to `O=C(Nc1cc2ccccc2cc1OCCCO)c1cnn2cccnc12` [Example 80, Pyrazolo[1,5-alpha]pyrimidine-3-carboxylic acid [3-(3-hydroxy-propoxy)-naphthalen-2-yl]-amide], the IC50 is 327 nM.

On to `NCC1CCN(c2ccc(Cl)cc2NC(=O)c2cnn3cccnc23)C1` (stereo not drawn) [Example 101, Pyrazolo[1,5-alpha]pyrimidine-3-carboxylic acid [2-(3-aminomethyl-pyrrolidin-1-yl)-5-chloro-phenyl]-amide], for which the IC50 was 564 nM.

Regarding `O=C(Nc1cccc(NCCCO)c1N1CCCCC1)c1cnn2cccnc12` [Example 144, Pyrazolo[1,5-alpha]pyrimidine-3-carboxylic acid [3-(3-hydroxy-propylamino)-2-piperidin-1-yl-phenyl]-amide], the IC50 is 2850 nM.

As to `O=C(Nc1ccc2ncccc2c1)c1csc2cnc(NCCO)nc12` [Example 75, 2-(2-Hydroxy-ethylamino)-thieno[3,2-d]pyrimidine-7-carboxylic acid quinolin-6-ylamide], the IC50 came out at 300 nM.

On to `COc1ccc(Cl)cc1NC(=O)c1csc2cnc(N(C)CCO)nc12` [Example 157, 2-[(2-Hydroxy-ethyl)-methyl-amino]-thieno[3,2-d]pyrimidine-7-carboxylic acid (5-chloro-2-methoxy-phenyl)-amide], for which the IC50 was 4130 nM.

Regarding `COc1cc2[nH]ncc2cc1NC(=O)c1cnn2cccnc12` [Example 69, Pyrazolo[1,5-alpha]pyrimidine-3-carboxylic acid (6-methoxy-1H-indazol-5-yl)-amide], the 50% inhibitory concentration (IC50) was found to be 231 nM.

Regarding `O=C(Nc1cc(Cl)ccc1N1CCCCCC1)c1cnn2cccnc12` [Example 119, Pyrazolo[1,5-alpha]pyrimidine-3-carboxylic acid (2-azepan 1-yl-5-chloro-phenyl)-amide], the concentration for half-maximal inhibition (IC50) is 1500 nM.

For `COc1ccc(C)cc1NC(=O)c1cnn2cccnc12` [Example 153, Pyrazolo[1,5-alpha]pyrimidine-3-carboxylic acid (2-methoxy-5-methyl-phenyl)-amide], the IC50 was 3770 nM.

As for `CC(N)C1CCN(c2ccc(Cl)cc2NC(=O)c2cnn3cccnc23)C1` (stereo not drawn) [Example 148, Pyrazolo[1,5-alpha]pyrimidine-3-carboxylic acid {2-[3-(1-amino-ethyl)-pyrrolidin-1-yl]-5-chloro-phenyl}-amide hydrochloride], the IC50 came out at 3080 nM.

As to `O=C(Nc1cc(Cl)ccc1OCCCO)c1cnn2cccnc12` [Example 84, Pyrazolo[1,5-alpha]pyrimidine-3-carboxylic acid [5-chloro-2-(3-hydroxy-propoxy)-phenyl]-amide], the IC50 came to 430 nM.

`O=C(Nc1cc(Cl)ccc1N1CCCCC1CO)c1cnn2cccnc12` (stereo not drawn) [Example 164, Pyrazolo[1,5-alpha]pyrimidine-3-carboxylic acid [5-chloro-2-(2-hydroxymethyl-piperidin-1-yl)-phenyl]-amide]: the IC50 stood at 4850 nM.

Consider `O=C(Nc1cc(Cl)ccc1N1CCC(O)C1)c1cnn2cccnc12` (stereo not drawn) [Example 95, Pyrazolo[1,5-alpha]pyrimidine-3-carboxylic acid [5-chloro-2-(3-hydroxy-pyrrolidin-1-yl)-phenyl]-amide], for which the IC50 was 493 nM.

In the case of `O=C(Nc1cc2cccnc2cc1OC1CCNCC1)c1cnn2cccnc12` [Example 32, Pyrazolo[1,5-alpha]pyrimidine-3-carboxylic acid [7-(piperidin-4-yloxy)-quinolin-6-yl]-amide hydrochloride], the IC50 came to 40 nM.

In the case of `COc1cc2ccc(CO)cc2cc1NC(=O)c1cnn2cccnc12` [Example 82, Pyrazolo[1,5-alpha]pyrimidine-3-carboxylic acid (7-hydroxymethyl-3-methoxy-naphthalen-2-yl)-amide], the IC50 stood at 358 nM.

For `COc1ccc(Cl)cc1NC(=O)c1csc2cnc(NCCNC(C)=O)nc12` [Example 175, 2-(2-Acetylamino-ethylamino)-thieno[3,2-d]pyrimidine-7-carboxylic acid-(5-chloro-2-methoxy-phenyl)-amide], the IC50 came out at 8090 nM.

With `COc1ccccc1NC(=O)c1cnn2cccnc12` [Example 171, Pyrazolo[1,5-alpha]pyrimidine-3-carboxylic acid (2-methoxy-phenyl)-amide], the IC50 was found to be 7340 nM.

Regarding `O=C(Nc1cc(Cl)ccc1-c1ccccc1)c1cnn2cccnc12` [Example 100, Pyrazolo[1,5-alpha]pyrimidine-3-carboxylic acid (4-chloro-biphenyl-2-yl)-amide], the IC50 turned out to be 534 nM.

Regarding `C=Cc1ccc(OC)c(NC(=O)c2cnn3cccnc23)c1` [Example 143, Pyrazolo[1,5-alpha]pyrimidine-3-carboxylic acid (2-methoxy-5-vinyl-phenyl)-amide], the IC50 is 2750 nM.

Turning to `NC(=O)c1cnc2c(C(=O)Nc3cc(Cl)ccc3O[C@H]3CC[C@@H](O)CC3)cnn2c1` [Example 67, Pyrazolo[1,5-alpha]pyrimidine-3,6-dicarboxylic acid 6-amide 3-{[5-chloro-2-(4-hydroxy-cyclohexyloxy)-phenyl]-amide}], the IC50 amounted to 203 nM.

On to `NC(=O)c1cnc2c(C(=O)Nc3cc(Cl)ccc3OC3CCC(O)CC3)cnn2c1` (stereo not drawn) [Example 52, Pyrazolo[1,5-alpha]pyrimidine-3,6-dicarboxylic acid 6-amide-3-{[5-chloro-2-(4-hydroxy-cyclohexyloxy)-phenyl]-amide}], for which the IC50 came out at 107 nM.

Consider `COc1ccc(NC(C)=O)cc1NC(=O)c1cnn2cccnc12` [Example 173, Pyrazolo[1,5-alpha]pyrimidine-3-carboxylic acid (5-acetylamino-2-methoxy-phenyl)-amide], for which the IC50 is 7700 nM.

Turning to `O=C(Nc1cc(Cl)ccc1OCCCCO)c1cnn2cccnc12` [Example 87, Pyrazolo[1,5-alpha]pyrimidine-3-carboxylic acid [5-chloro-2-(4-hydroxy-butoxy)-phenyl]-amide], the 50% inhibitory concentration (IC50) worked out at 437 nM.

Regarding `O=C(Nc1cc(Cl)ccc1-c1cccc(O)c1)c1cnn2cccnc12` [Example 125, Pyrazolo[1,5-alpha]pyrimidine-3-carboxylic acid (4-chloro-3′-hydroxy-biphenyl-2-yl)-amide], the IC50 was determined as 2050 nM.

With `COc1ccc(Cl)cc1NC(=O)c1csc2cncnc12` [Example 128, Thieno[3,2-d]pyrimidine-7-carboxylic acid (5-chloro-2-methoxy-phenyl)-amide], the IC50 came to 2200 nM.

The next test concerns the target IRAK-1 (Homo sapiens (Human), UniProt P51617). Put plainly: In vitro IRAK-1 kinase assay. The note with it: purified recombinant IRAK-1, 50 uM ATP, 33P peptide phosphorylation. It is filed as biochemical. How it is done:
Purified recombinant IRAK-4 protein was incubated with 250 uM synthetic peptide ([…]) in 30 ul of kinase buffer including (20 mM MOPS pH7.2, 25 mM beta glycerol phosphate, 5 mM EGTA, 1 mM sodium orthovanadate, 1 mM DTT, 50 uM ATP, 20 mM MgCl2, 10 uCi γ-^33P, 0.1% BSA) for the indicated time. For purified recombinant IRAK-1 protein kinase assay, 50 uM ATP was used. A 25 ul aliquot of the reaction mixture was transferred on to p81 phosphocellulose squares (Upstate Biotechnology, Lake Placid, N.Y.). The assay squares were washed three times with 0.75% phosphoric acid and once with acetone. Enzyme activity was measured by determining the bound radioactivity by liquid scintillation counting.
On to `O=C(Nc1cc(Cl)ccc1O[C@H]1CC[C@@H](O)CC1)c1csc2cncnc12` [Example 62, Thieno[3,2-d]pyrimidine-7-carboxylic acid [5-chloro-2-(4-hydroxy-cyclohexyloxy)-phenyl]-amide], for which the IC50 came to 126 nM.

For the compound `CC(C)(CCO)Oc1cc2ncccc2cc1NC(=O)c1csc2cncnc12` [Example 35, Thieno[3,2-d]pyrimidine-7-carboxylic acid [7-(3-hydroxy-1,1-dimethyl-propoxy)-quinolin-6-yl]-amide hydrochloride], the IC50 came out at 364 nM.

For the compound `O=C(Nc1cc(Cl)ccc1N1CCC(CO)CC1)c1csc2cncnc12` [Example 49, Thieno[3,2-d]pyrimidine-7-carboxylic acid [5-chloro-2-(4-hydroxymethyl-piperidin-1-yl)-phenyl]-amide], the IC50 turned out to be 700 nM.

In the case of `O=C(Nc1cc2cccnc2cc1O[C@H]1CC[C@H](O)CC1)c1csc2cncnc12`, the IC50 came out at 168 nM.

`COc1cc2ncccc2cc1NC(=O)c1csc2cnc(N(C)CCO)nc12` [Example 24]: the 50% inhibitory concentration (IC50) is 300 nM.

In the case of `NCC1CCN(c2cc3ncccc3cc2NC(=O)c2csc3cncnc23)CC1` [Example 14, hydrochloride], the IC50 worked out at 850 nM.

For `O=C(Nc1cc2cccnc2cc1O[C@@H]1CC[C@@H](O)C1)c1csc2cncnc12` (stereo in doubt) [hydrochloride], the concentration for half-maximal inhibition (IC50) came out at 246 nM.

In the case of “2-(cis-2-amino-cyclohexylamino)-thieno[3,2-d]pyrimidine-7-carboxylic acid (2,4-dimethoxy-phenyl)-amide [Example 26]”, the IC50 is 463 nM.

These data come from patent publication US9255110B2 (Hoffmann-La Roche Inc., priority 2010, dated 2016).
